The record followed here is ChEMBL document CHEMBL5532635, “The role of natural anti-parasitic guided development of synthetic drugs for leishmaniasis” (Eur J Med Chem, 2023).

Molecules are shown by their SMILES. Values after ≈ are worked out from the molar mass of the structure shown. Bounds are passed on as bounds.

Data set [1] has as its system Leishmania major. Briefly: Antileishmanial activity against Leishmania major promastigotes incubated for 24 hrs measured by alamar blue staining based fluorescence analysis. It counts as functional, organism-based. On the technique in general: The colour change of resazurin is a common sign of viable cells or microbes.
Data set [2] deals with Leishmania infantum. Briefly: Antileishmanial activity against Leishmania infantum MCAN/ES/89/IPZ229/1/89 axenic amastigotes assessed as reduction in parasite viability treated for 24 hrs by PI staining based flow cytometry. The conditions noted are these: MCAN/ES/89/IPZ229/1/89, 24 h. It counts as functional, organism-based. (In general: A flow cytometer gives signals particle by particle.)

Data set [3] deals with Leishmania major. Briefly: Antileishmanial activity against Leishmania major promastigotes assessed as parasite growth inhibition incubated for 24 hrs by Alamar blue staining based assay. It is filed as functional, organism-based.
Data set [4] relates to Leishmania donovani. Briefly: Antileishmanial activity against Leishmania donovani promastigotes assessed as inhibition of parasite growth measured after 24 hrs by Alamar blue based analysis. It is filed as functional, organism-based.
Data set [5] concerns Leishmania donovani. Briefly: Antileishmanial activity against Leishmania donovani promastigotes assessed as reduction in parasite growth. It counts as functional, organism-based.
Data set [6] relates to Leishmania amazonensis. Briefly: Antileishmanial activity against Leishmania amazonensis MHOM/BR/77/LTB001 assessed as parasite growth inhibition. It is filed as functional, organism-based.
Data set [7] relates to Leishmania amazonensis. Briefly: Antileishmanial activity against Leishmania amazonensis amastigotes assessed as reduction in parasite growth. It is filed as functional, organism-based.
Data set [8] has as its system Leishmania amazonensis. Briefly: Antileishmanial activity against Leishmania amazonensis IFLA/BR/1967/PH8 amastigotes infected in mouse peritoneal macrophage assessed as inhibition of parasite growth measured after 24 hrs by Giemsa staining based analysis. It counts as functional, organism-based. The conditions noted are these: IFLA/BR/1967/PH8, Peritoneal macrophage cell.

Data set [9] concerns Leishmania donovani. Briefly: Antileishmanial activity against Leishmania donovani intracellular amastigotes assessed as parasite growth inhibition. It is filed as functional, organism-based.
In data set [10] the test system is Leishmania amazonensis. Briefly: Antileishmanial activity against Leishmania amazonensis amastigotes assessed as reduction in parasite growth measured after 24 hrs by MTT assay. It is filed as functional, organism-based.
In data set [11] the test system is Leishmania amazonensis. Briefly: Antileishmanial activity against Leishmania amazonensis promastigotes assessed as inhibition of parasite growth measured after 72 hrs by alamar blue assay. It is filed as functional, organism-based.
Data set [12] has as its system Leishmania infantum. Briefly: Antileishmanial activity against Leishmania infantum MCAN/ES/89/IPZ229/1/89 promastigote measured after 72 hrs by MTT assay. It is filed as functional, organism-based. The conditions noted are these: MCAN/ES/89/IPZ229/1/89, 72 h. Background: Tetrazolium assays rely on reduction of a dye to a coloured formazan, in cell work by metabolically active cells.

In data set [13] the test system is Leishmania amazonensis. Briefly: Antileishmanial activity against Leishmania amazonensis MHOM/BR/71973/M2269 promastigotes assessed as reduction in parasite growth incubated for 24 hrs by PI staining based flow cytometry analysis. It counts as functional, organism-based. The conditions noted are these: MHOM/BR/71973/M2269, 24 h.
The subject of data set [14] is Leishmania infantum. Briefly: Antileishmanial activity against Leishmania infantum MHOM/BR/1972/BH46 promastigotes assessed as reduction in parasite growth incubated for 24 hrs by PI staining based flow cytometry analysis. It counts as functional, organism-based. The note with it: MHOM/BR/1972/BH46, 24 h.
The test system of data set [15] is Leishmania major. Briefly: Antileishmanial activity against Leishmania major IR-173 promastigotes assessed as inhibition of parasite growth incubated for 48 hrs by resazurin dye based assay. It counts as functional, organism-based. The conditions noted are these: IR-173, 48 h.
Data set [16] relates to Leishmania major. Briefly: Antileishmanial activity against Leishmania major promastigotes assessed as inhibition of parasite growth incubated for 48 hrs by resazurin dye based assay. It is filed as functional, organism-based.
Data set [17] concerns Leishmania major. Briefly: Antileishmanial activity against Leishmania major IR-173 promastigotes assessed as inhibition of parasite viability incubated for 72 hrs by resazurin/alamar blue fluorometric assay. It is filed as functional.
Data set [18] has as its system Leishmania tropica. Briefly: Antileishmanial activity against Leishmania tropica amastigotes incubated for 24 hrs measured by alamar blue staining based fluorescence analysis. It counts as functional, organism-based.
In data set [19] the test system is Leishmania tropica. Briefly: Antileishmanial activity against Leishmania tropica promastigotes incubated for 24 hrs measured by alamar blue staining based fluorescence analysis. It is filed as functional, organism-based.
A further data set addresses Arginase (Leishmania amazonensis, UniProt O96394). Briefly: Inhibition of Leishmania amazonensis Arginase expressed in Escherichia coli BL21 (DE3).
In data set [20] the test system is Leishmania amazonensis. Briefly: Antileishmanial activity against Leishmania amazonensis promastigotes assessed as reduction in parasite growth measured after 24 hrs by MTT assay. It counts as functional, organism-based.
Data set [21] can be described thus: Cytotoxicity against mouse RAW264.7 cells assessed as reduction in cell viability measured after 24 hrs by CCK8 assay. It counts as toxicity, cell-based.
The test system of data set [22] is Leishmania infantum. Briefly: Antileishmanial activity against Leishmania infantum MHOM/BR/70/BH46 promastigotes assessed as inhibition of parasite growth incubated for 72 hrs by Neubauer chamber based analysis. It counts as functional, organism-based. The conditions noted are these: MHOM/BR/70/BH46, 72 h.
Data set [23] concerns Leishmania donovani. Briefly: Antileishmanial activity against Leishmania donovani promastigotes assessed as reduction in parasite growth incubated for 72 hrs by MTT assay. It is filed as functional, organism-based.
Another data set concerns Leishmania mexicana. Briefly: Antileishmanial activity against Leishmania mexicana intracellular amastigotes infected in J774 macrophages assessed as reduction in parasite viability after 72 hrs by MTT based analysis. It is filed as functional, organism-based. The note with it: J774, 72 h.
The nature of data set [24]: Antileishmanial activity against Leishmania donovani MHOM/IN/95/9515 promastigotes assessed as inhibition of parasite viability incubated for 72 hrs by resazurin/alamar blue fluorometric assay. It is filed as functional.
In data set [25] the test system is Leishmania donovani. Briefly: Antileishmanial activity against Leishmania donovani promastigotes at 25 uM. It is filed as functional.
Data set [26] concerns Leishmania donovani. Briefly: Antileishmanial activity against Leishmania donovani promastigotes at 50 uM. It is filed as functional.

The EC50 is the concentration needed to bring the measured effect to its halfway point. Lower therefore signals a more potent agent. As to `CCOC(=O)C1=C(C)NC(C)=C(C(=O)OCC)C1c1cccc(Cl)c1`, it took 15.5 µM to reach a half-maximal effect in the data set on Leishmania major [1] (EC50).

What is called IC50 is the concentration that inhibits the measured activity by half. For the compound `Cn1c(=O)c2c(c3ccccc31)OC(C)(C)[C@H]1CC[C@@](C)(O)[C@H](Cl)[C@H]21`, the IC50 in the data set on Leishmania infantum [2] is over 6.25 µM.

As for `C[C@@H]1CC[C@@]2(C)C(C(=O)O)=CCC[C@@H]2[C@@]1(C)CCc1ccoc1`, the IC50 in the data set with Leishmania major [3] and in the data set on Leishmania donovani [4] was 10 µM each time.

Take `CN[C@@H]1C[C@H]2O[C@@](C)([C@@H]1OC)n1c3ccccc3c3c4c(c5c6ccccc6n2c5c31)C(=O)NC4=O`: the IC50 with Leishmania donovani [5] came to 1 nM; in the data set on Leishmania amazonensis [6] it was 7 nM; in the data set on Leishmania amazonensis [7], 0.2 nM.

With `O=C(CC[Se]c1ccnc2cc(Cl)ccc12)Nc1ccc([N+](=O)[O-])cc1`, the IC50 with Leishmania amazonensis [8] was 10.8 µM.

As for `CCCCCCCCNCc1ccc2c(c1)C(=O)CC(C)(C)O2`, in the data set on Leishmania donovani [9], the IC50 stood at 24.6 µM.

For the compound `CCCc1cc(OC)c2oc(=O)c(C(=O)c3ccc([N+](=O)[O-])cc3)cc2c1`, the IC50 was 18 µM in the data set on Leishmania amazonensis [10]; 18 µM in the data set with Leishmania amazonensis [11]; 6.8 µM in the data set with Leishmania infantum [12]; 26.7 µM in the data set on Leishmania amazonensis [13]; 3.53 µM in the data set on Leishmania infantum [14].

As to `CCC[C@H]1CC(=O)Oc2c(C(=O)[C@H](C)[C@H](C)O)c(O)c3c(c21)OC(C)(C)C=C3`, the IC50 with Leishmania major [15] was determined as 36.5 µg/mL (≈ 94 µM); with Leishmania major [16], 29.1 µg/mL (≈ 74.9 µM).

On to `O=C(Cn1cnc2ccccc2c1=O)N1CCC2(CC1)OCCO2`, for which the Activity in the data set with Leishmania major [17] was determined as 35%.

Take `Cc1ccccc1C(=O)N/N=C1\C(=O)N(CC(O)COc2cc(=O)oc3ccccc23)c2ccccc21` (stereo not given): the IC50 in the data set on Leishmania tropica [18] amounted to 4.13 µM; in the data set on Leishmania tropica [19], 3.73 µM.

Regarding `O=C(CCc1ccc(O)c(O)c1)O[C@H](Cc1ccc(O)cc1)C(=O)O`, the concentration for half-maximal inhibition (IC50) against Arginase amounted to 5.5 µM.

As for `COc1ccc(C(O)C(C)Oc2ccc(C3OC(c4ccc(OC(C)C(O)c5ccc(OC)c(OC)c5)c(OC)c4)C(C)C3C)cc2OC)cc1OC` (stereo not given), the IC50 in the data set on Leishmania amazonensis [10] stood at 20.4 µg/mL; with Leishmania amazonensis [20], 35.4 µg/mL (≈ 48.3 µM).

What is called CC50 is the concentration giving 50% cytotoxicity. Regarding `O=C(/C=C/c1ccc(F)cc1)c1ccccc1Cl`, the CC50 at 24 h in data set [21] came out at 479 µM.

On to `CCc1ccc(NC(=S)N/N=C\c2c[nH]c3c(C)cc(Br)cc23)cc1`, for which, in the data set with Leishmania infantum [22], the IC50 was 4.36 µM.

Turning to `COc1ccc2nc(C(=O)NCCCN(C)C)ccc2c1`, in the data set with Leishmania amazonensis [8], the IC50 is 5.67 µM.

Turning to `CCOC(=O)C1=CNC(=S)NC1c1ccc(C)cc1` (stereo not given), in the data set on Leishmania donovani [23], the IC50 was determined as 28.3 µg/mL (≈ 102 µM).

Turning to `COc1cc(/C=C/C(=O)c2ccc([N+](=O)[O-])cc2)ccc1OCC=C(C)C`, the IC50 with Leishmania mexicana is 8.22 µM.

Consider `O=C(Cn1cnc2cc(Cl)ccc2c1=O)n1cnc2cc(Cl)ccc2c1=O`, for which the Activity in data set [24] was determined as 29%.

With `COc1cc(/C=C2/Oc3cc(O)ccc3C2=O)cc(OC)c1`, the Activity with Leishmania donovani [25] amounted to 106%; with Leishmania donovani [26], 109%.
